Patent US12264163B2, “Compounds and methods for treating fibrotic pathologies” (Mayo Foundation for Medical Education and Research, priority 2019, dated 2025)
Counter-ions that a name gives are not always drawn.

What was measured:
D1 receptor = details: cited from earlier work
αSMA [1] = assay: αSMA intensity (fibroblast activation) in IPF patient-derived lung fibroblasts + TGFβ, dopaminergic agonist library; assay type: cell-based, human; details: 1 μM + TGFβ, 72 hours
Experimental: (§1) Media was then exchanged for the indicated conditions for each experiment. […] Cells or tissue sections were incubated overnight with mouse monoclonal antibody against αSMA (Sigma-Aldrich F3777), and/or a rabbit monoclonal antibody against YAP/TAZ (Cell Signaling D24E4) diluted 1:200 in PBS with 1% BSA. Cells were then washed and exposed to flourescence-conjugated secondary antibodies (Invitrogen) diluted 1:1000 and DAPI (Thermo Fisher Scientific). Images were taken with a Cytation5 (BioTek) microscope. For scoring αSMA positive cells (FIG. 12), an observer blinded to the treatment conditions counted αSMA-positive cells using a visual threshold for bright fibrous staining; a minimum of 200 cells was counted for each condition. YAP/TAZ localization was quantified (FIGS. 6-10, 24-26, and 29-30) using Gen5 (Biotek) software. Images were taken at 4× magnification of both DAPI and YAP/TAZ staining. […] Quantification of double positive (YAP/TAZ and αSMA) cells from lung tissue sections (FIG. 17-21) was performed similarly; however separate thresholds were established for both YAP/TAZ and αSMA. A minimum of 4000 cells was quantified for each mouse.

YAP/TAZ [2] = assay: YAP/TAZ nuclear localization in IPF patient-derived lung fibroblasts treated with dopaminergic agonists; assay type: cell-based, human; details: for Nuclear localization (% of total cells): 10 μM, 2 hours
Experimental: IPF patient-derived lung fibroblasts cells treated 2 hours prior to fixation with diverse dopaminergic agonists (10 μM). N=4 different patient samples. % nuclear localization of YAP/TAZ was determined using automated imaging software. Scale bar represents 100 μm.
as §1

CTGF, COL1A1, ACTA2, FN1 = assay: Profibrotic / matrix remodeling gene expression by qPCR in fibroblasts; assay type: cell-based, human; details: for profibrotic gene expression / effect of D1 antagonist on DHX's inhibition of YAP/TAZ target genes: IMR-90 lung fibroblasts; for profibrotic gene expression: 24 hours
Experimental: Genes which encode Connective tissue growth factor (CTGF), Collagen I (COL1A1), αSMA (ACTA2), and Fibronectin (FN1) are reduced by 24 hour treatment with DHX (10 μM), +/−SCH 39166 (3 μM). N=3 (****p<0.0001, ***p<0.001, *p<0.05 vs. 0.1% DMSO vehicle control)
IPF patient-derived fibroblasts cultured in media containing 0.1% FBS were stimulated for 24 hours with 2 ng/mL TGFβ and 10 μM DHX prior to RNA isolation. Genes which encode for ECM crosslinking: transglutaminase 2 (TGM2), lysyl oxidase and lysyl oxidase-like enzymes (LOX and LOXL1-4), ECM degradation: uPA (PLAU), tPa (PLAT), cathepsin K (CTSK), and matrix metalloprotease-14 (MMP14) and ECM protease inhibitors: metalloprotease inhibitor 3 (TIMP3), and plasminogen activator inhibitor 1 (SERPINE1) were measured. N=3. (****p<0.0001, ***p<0.001, **p<0.01, *p<0.05 vs. 0.1% DMSO vehicle control non-TGFβ treated), (++++p<0.0001, ++p<0.01, +p<0.05 vs. 0.10% DMSO vehicle control TGFβ treated).
For all other in vitro experiments, cells were treated as indicated prior to RNA isolation using RNeasy Plus Mini Kit (Qiagen) according to manufacturer's instructions. Isolated RNA (250 ng) was then used to synthesize cDNA using SuperScript VILO (Invitrogen). Quantitative PCR was performed using FastStart Essential DNA Green Master (Roche) and analyzed using a LightCycler 96 (Roche). Data are expressed as a fold change by ΔΔCt relative to GAPDH. For in vivo experiments, tissue was immediately frozen, and stored at −80° C. RNA isolation, cDNA synthesis, and qPCR analysis were performed as above.

YAP/TAZ [3] = assay: YAP/TAZ nuclear localization in adult lung fibroblasts, dose response (Cytation 5); assay type: cell-based; details: Homo sapiens, Fibroblast, 2 h, adult lung fibroblasts sparsely plated, treated 2 hours; read-out: IC50, inhibition of YAP/TAZ nuclear localization
Experimental: Adult lung fibroblasts (N=2) sparsely plated into 96-well plates. Treated for 2 hours with compounds prior to fixing and immunostaining for YAP/TAZ.
(§2) Immunofluorescence Microscopy: Cells were plated into 96 well plates (Corning 3603) in their specific growth media and allowed to attach (8 hours). Media was then exchanged for the indicated conditions for each experiment. Cells were fixed in 3.7% formalin (Sigma-Aldrich), permeabilized in 0.25% Triton X-100 (Sigma-Aldrich) and then blocked with 1% BSA for 1 h. Cells or tissue sections were incubated overnight with mouse monoclonal antibody against αSMA (Sigma-Aldrich F3777), and/or a rabbit monoclonal antibody against YAP/TAZ (Cell Signaling D24E4) diluted 1:200 in PBS with 1% BSA. Cells were then washed and exposed to flourescence-conjugated secondary antibodies (Invitrogen) diluted 1:1000 and DAPI (Thermo Fisher Scientific). Images were taken with a Cytation5 (BioTek) microscope. For scoring αSMA positive cells (FIG. 12), an observer blinded to the treatment conditions counted αSMA-positive cells using a visual threshold for bright fibrous staining; a minimum of 200 cells was counted for each condition. YAP/TAZ localization was quantified (FIGS. 6-10, 24-26, and 29-30) using Gen5 (Biotek) software. Images were taken at 4× magnification of both DAPI and YAP/TAZ staining. […] Quantification of double positive (YAP/TAZ and αSMA) cells from lung tissue sections (FIG. 17-21) was performed similarly; however separate thresholds were established for both YAP/TAZ and αSMA. A minimum of 4000 cells was quantified for each mouse.

αSMA [4] = assay: TGFβ-induced αSMA+ stress fiber formation in fibroblasts; assay type: cell-based, human; details: IPF-patient derived fibroblasts, TGFβ 48 hours, then dopamine 1 μM + TGFβ 24 hours
Experimental: Media was then exchanged for the indicated conditions for each experiment. Cells were fixed in 3.7% formalin (Sigma-Aldrich), permeabilized in 0.25% Triton X-100 (Sigma-Aldrich) and then blocked with 1% BSA for 1 h. Cells or tissue sections were incubated overnight with mouse monoclonal antibody against αSMA (Sigma-Aldrich F3777), and/or a rabbit monoclonal antibody against YAP/TAZ (Cell Signaling D24E4) diluted 1:200 in PBS with 1% BSA. Cells were then washed and exposed to flourescence-conjugated secondary antibodies (Invitrogen) diluted 1:1000 and DAPI (Thermo Fisher Scientific). Images were taken with a Cytation5 (BioTek) microscope. For scoring αSMA positive cells (FIG. 12), an observer blinded to the treatment conditions counted αSMA-positive cells using a visual threshold for bright fibrous staining; a minimum of 200 cells was counted for each condition. YAP/TAZ localization was quantified (FIGS. 6-10, 24-26, and 29-30) using Gen5 (Biotek) software. Images were taken at 4× magnification of both DAPI and YAP/TAZ staining. […] Quantification of double positive (YAP/TAZ and αSMA) cells from lung tissue sections (FIG. 17-21) was performed similarly; however separate thresholds were established for both YAP/TAZ and αSMA. A minimum of 4000 cells was quantified for each mouse.

[5] = tested on: IPF patient derived fibroblasts; assay: Traction force microscopy of IPF patient-derived fibroblasts; assay type: cell-based, human; details: IPF fibroblasts on 6.4 kPa matrices
Experimental: Traction Force Microscopy: Traction analysis was conducted as previously described. […] IPF patient derived fibroblasts were plated on the gels overnight and treated as indicated before traction force measurements. Images of gel surface-conjugated fluorescent beads were acquired for each cell before and after trypsinization using a Nikon ECLIPSE Ti microscope at ×10 magnification. Traction forces were estimated by measuring bead displacement fields and computing corresponding traction fields using TractionsForAll (freely distributed program that calculates 2-D tractions exerted by an adherent cell on its substrate).

cAMP = cAMP assay (cAMP-Glo) in fibroblasts; assay type: cell-based, human; details: IMR-90 lung fibroblasts
Experimental: FIG. 9 contains a bar graph showing cAMP measured in IPF patient-derived fibroblasts treated for 20 minutes with DHX (10 μM)+/−SCH 39166 (3 μM). N=3 (**p<0.01 vs. 0.1% DMSO vehicle control).
N=3, IMR-90 lung fibroblasts.
cAMPAssay: IPF patient derived fibroblasts were plated in EMEM containing 10% FBS overnight. […] 20 minutes prior to cell lysis media was removed and cells were treated with “induction buffer” containing nonselective phosphodiesterase inhibitors and the indicated concentration of compound(s). Luminescence was measured on a Flexstation 3 (Molecular Devices) plate reader.

YAP/TAZ [6] = assay: YAP/TAZ nuclear localization in IMR-90 and other fibroblasts / mesenchymal cells (immunofluorescence); assay type: cell-based, human; details: IMR-90 lung fibroblasts
Experimental: Selective agonists of dopamine receptor D1 with varying efficacy inhibit YAP/TAZ nuclear localization; this effect can be overcome by treatment with a DRD1 receptor antagonist (SCH 39166, 3 μM), (Dihydrexidine, 10 μM). IMR-90 cells treated 2 hours prior to fixation. N=4 (****p<0.0001 vs. 0.10% DMSO vehicle control). Scale bar represents 100 μm.
In each case DHX treatment (10 μM) can reverse this effect on YAP/TAZ. IMR-90 cells plated densely onto plastic cell culture plates for 24 hours in media containing 0.1% FBS, treated for 2 hours prior to fixation. N=4 (****p<0.0001 vs. 0.1% DMSO vehicle control), (++++p<0.0001 vs. the respective stimulated agonist ET-1, LPA, or 5-HT). Scale bar represents 100 μm.
Mesenchymal cells derived from lung (IMR-90 and IPF-FBs) hepatic stellate cells (HSC), human adult cardiac fibroblasts, (HACF) and human dermal fibroblasts (HDF) were plated densely (Confluent) or sparsely (Control and all remaining conditions) onto plastic cell culture plates for 24 hours in media containing 0.10% FBS, treated for 2 hours with Rho kinase inhibitor Y27632, adenylate cyclase activator forskolin and DHX. N=4, Cells that were positive for nuclear YAP/TAZ were quantified by automated image analysis.
as §2

Compound	Nuclear localization (% of total cells) (YAP/TAZ [2]; IPF-1 patient fibroblasts)	Nuclear localization (% of total cells) (YAP/TAZ [2]; IPF-2 patient fibroblasts)	Nuclear localization (% of total cells) (YAP/TAZ [2]; IPF-3 patient fibroblasts)	Nuclear localization (% of total cells) (YAP/TAZ [2]; IPF-4 patient fibroblasts)	IC50 (YAP/TAZ [3]) [nM]	profibrotic gene expression (CTGF, COL1A1, ACTA2, FN1)	effect of D1 antagonist on DHX's elevation of cAMP (cAMP)	effect of D1 antagonist on DHX's inhibition of YAP/TAZ nuclear localization (YAP/TAZ [6])	effect of D1 antagonist on DHX's inhibition of YAP/TAZ target genes (CTGF, COL1A1, ACTA2, FN1)	also measured
Cl.NC[C@@H]1O[C@H](c2ccccc2)Cc2c1ccc(O)c2O [A 68930•HCl, A 68930]	33.13 % of total cells	30.59 % of total cells	26.82 % of total cells	10.26 % of total cells	–	–	–	–	–	efficacy at elevating cAMP (D1 receptor) (D1 receptor): lacks full efficacy to elevate cAMP; αSMA intensity (% of DMSO control) (αSMA [1]; IPF-1 patient fibroblasts): 12.4 % of DMSO control; αSMA intensity (% of DMSO control) (αSMA [1]; IPF-2 patient fibroblasts): 8.111 % of DMSO control; αSMA intensity (% of DMSO control) (αSMA [1]; IPF-3 patient fibroblasts): 3.245 % of DMSO control; αSMA intensity (% of DMSO control) (αSMA [1]; IPF-4 patient fibroblasts): 7.35 % of DMSO control; profibrotic gene expression in human dermal fibroblasts (CTGF, COL1A1, ACTA2, FN1; human dermal fibroblasts, 24 hours +/− 2 ng/mL TGFβ): blocks profibrotic gene expression
NCC1OC(C2CCCOC2)Cc2c1ccc(O)c2O (stereo not drawn) [CTC-1]	–	–	–	–	285	inhibition of profibrotic gene expression	–	–	–	–
CC(C)(CO)C1Cc2c(ccc(O)c2O)C(CN)O1 (stereo not drawn) [CTC-2]	–	–	–	–	490	inhibition of profibrotic gene expression	–	–	–	–
NCCc1ccc(O)c(O)c1 [Dopamine•HCl, Dopamine]	39.85 % of total cells	59.29 % of total cells	49.67 % of total cells	49.51 % of total cells	–	–	–	–	–	αSMA+ stress fiber formation (αSMA [4]): reverses αSMA+ stress fiber formation; YAP/TAZ nuclear localization (YAP/TAZ [2]; low density IPF-patient derived fibroblasts on tissue culture plastic): inhibits YAP/TAZ nuclear localization; contractile forces (traction force microscopy) [5]: attenuates IPF fibroblast contractility
CN1CCc2ccccc2Cc2[nH]c3ccccc3c2CC1 [LE-300]	–	–	–	–	–	–	block DHX's elevation of cAMP	block DHX's inhibition of YAP/TAZ nuclear localization	block DHX's inhibition of YAP/TAZ target genes	–
CN1CCc2cc(Cl)c(O)cc2[C@H]2c3ccccc3CC[C@@H]21 [SCH-39166]	–	–	–	–	–	–	block DHX's elevation of cAMP	block DHX's inhibition of YAP/TAZ nuclear localization	block DHX's inhibition of YAP/TAZ target genes	–
